According to ChEMBL document CHEMBL4706719, “Androgen Receptor Degradation for Therapeutic Intervention of Prostate Cancer Drug Resistance” (ACS Med Chem Lett, 2021):

Target: Androgen receptor (Homo sapiens) (UniProt P10275)
Assay: In vivo inhibition of AR in castrated CB17 mouse xenografted with human VCaP cells at 10 mg/kg, po via gavage measured after 16 hrs by ELISA relative to control

Row | SMILES | inhibition [%]
1 | CC1(C)[C@H](NC(=O)c2ccc(N3CCC(CN4CCN(c5ccc6c(c5)C(=O)N(C5CCC(=O)NC5=O)C6=O)CC4)CC3)nn2)C(C)(C)[C@H]1Oc1ccc(C#N)c(Cl)c1 (stereo partly specified) | < 50
2 | CC1(C)[C@H](NC(=O)c2ccc(CCN3CCN(c4ccc5c(c4)C(=O)N(C4CCC(=O)NC4=O)C5=O)CC3)cc2)C(C)(C)[C@H]1Oc1ccc(C#N)c(Cl)c1 (stereo partly specified) | > 50
3 | CC1(C)[C@H](NC(=O)c2cc(F)c(CCOCCCN3CCN(c4ccc5c(c4)C(=O)N(C4CCC(=O)NC4=O)C5=O)CC3)c(F)c2)C(C)(C)[C@H]1Oc1ccc(C#N)c(Cl)c1 (stereo partly specified) | < 50
4 | CC1(C)[C@H](NC(=O)c2ccc(N3CCC(CN4CCN(c5cc6c(cc5F)C(=O)N(C5CCC(=O)NC5=O)C6=O)CC4)CC3)c(F)c2)C(C)(C)[C@H]1Oc1ccc(C#N)c(Cl)c1 (stereo partly specified) | > 50
5 | CC1(C)[C@H](NC(=O)c2ccc(N3CCC(CN4CCN(c5cc6c(cc5F)C(=O)N(C5CCC(=O)NC5=O)C6=O)CC4)CC3)nn2)C(C)(C)[C@H]1Oc1ccc(C#N)c(Cl)c1 (stereo partly specified) | > 50
6 | CC1(C)[C@H](NC(=O)c2ccc(N3CCC(CN4CCN(c5ccc6c(c5F)C(=O)N(C5CCC(=O)NC5=O)C6=O)CC4)CC3)cc2)C(C)(C)[C@H]1Oc1ccc(C#N)c(Cl)c1 (stereo partly specified) | > 50
7 | CC(C)N(CC1CCN(c2ccc(C(=O)N[C@H]3C(C)(C)[C@H](Oc4ccc(C#N)c(Cl)c4)C3(C)C)cc2)CC1)[C@H]1C[C@H](Oc2ccc3c(c2)C(=O)N(C2CCC(=O)NC2=O)C3=O)C1 (stereo partly specified) | > 50

The next lines start with the values.

Row | inhibition [%] | SMILES
8 | > 50 | CC1(C)[C@H](NC(=O)c2cnc(N3CCN(CCCOc4ccc5c(c4)C(=O)N(C4CCC(=O)NC4=O)C5=O)CC3)cn2)C(C)(C)[C@H]1Oc1ccc(C#N)c(Cl)c1 (stereo partly specified)
9 | > 50 | CC1(C)[C@H](NC(=O)c2ccc(N3CCN(CCCCCOc4ccc5c(c4)C(=O)N(C4CCC(=O)NC4=O)C5=O)CC3)nc2)C(C)(C)[C@H]1Oc1ccc(C#N)c(C#N)c1 (stereo partly specified)
10 | > 50 | CC1(C)[C@H](NC(=O)c2ccc(N3CCN(CCCOc4ccc5c(c4)C(=O)N(C4CCC(=O)NC4=O)C5=O)CC3)cc2)C(C)(C)[C@H]1Oc1ccc(C#N)c(Cl)c1 (stereo partly specified)
11 | > 50 | CC1(C)[C@H](NC(=O)c2ccc(N3CCN(CCCCCOc4ccc5c(c4)C(=O)N([C@H]4CCC(=O)NC4=O)C5=O)CC3)nc2)C(C)(C)[C@H]1Oc1ccc(C#N)c(Cl)c1
